This is an account of results in ChEMBL document CHEMBL1126414, “Dopamine receptor binding properties of some 2,3,4,5-tetrahydro-1H-3-benzazepine-7-ols with non-aromatic substituents in the 5-position” (Bioorg Med Chem Lett, 1992).

One assay concerns the target D(1A) dopamine receptor (Rattus norvegicus, UniProt P18901). Nature of the assay: Binding affinity towards Dopamine receptor D1 in rat striatal tissue by [3H]-SCH- 23390 displacement. It counts as tissue-based, Striatum.
Another assay has as its target D(2) dopamine receptor (Rattus norvegicus, UniProt P61169). Nature of the assay: Binding affinity towards Dopamine receptor D2 in rat striatal tissue by [3H]spiperone displacement. Format: tissue-based, Striatum.
A further assay deals with Rattus norvegicus. Nature of the assay: Minimal dose producing reduction in avoidance responding after sc administration for 1 hr in rat. It counts as functional.

Each structure is given as a SMILES string. Where only a bound is given, the exact number is not on record here.

Sequence of D(1A) dopamine receptor (P18901 whole entry): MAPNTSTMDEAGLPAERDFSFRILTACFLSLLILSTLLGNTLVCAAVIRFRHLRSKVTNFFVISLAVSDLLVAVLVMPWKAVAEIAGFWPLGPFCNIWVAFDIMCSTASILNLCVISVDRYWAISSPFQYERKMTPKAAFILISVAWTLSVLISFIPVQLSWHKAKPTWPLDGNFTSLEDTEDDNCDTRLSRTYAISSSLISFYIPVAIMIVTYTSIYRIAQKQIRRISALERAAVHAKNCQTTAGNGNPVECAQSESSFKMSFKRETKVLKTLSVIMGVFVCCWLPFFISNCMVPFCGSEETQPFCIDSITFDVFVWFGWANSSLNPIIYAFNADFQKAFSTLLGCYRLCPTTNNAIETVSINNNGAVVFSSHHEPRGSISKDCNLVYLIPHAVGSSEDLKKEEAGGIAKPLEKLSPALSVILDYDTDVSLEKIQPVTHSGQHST
Sequence of D(2) dopamine receptor (P61169 whole entry): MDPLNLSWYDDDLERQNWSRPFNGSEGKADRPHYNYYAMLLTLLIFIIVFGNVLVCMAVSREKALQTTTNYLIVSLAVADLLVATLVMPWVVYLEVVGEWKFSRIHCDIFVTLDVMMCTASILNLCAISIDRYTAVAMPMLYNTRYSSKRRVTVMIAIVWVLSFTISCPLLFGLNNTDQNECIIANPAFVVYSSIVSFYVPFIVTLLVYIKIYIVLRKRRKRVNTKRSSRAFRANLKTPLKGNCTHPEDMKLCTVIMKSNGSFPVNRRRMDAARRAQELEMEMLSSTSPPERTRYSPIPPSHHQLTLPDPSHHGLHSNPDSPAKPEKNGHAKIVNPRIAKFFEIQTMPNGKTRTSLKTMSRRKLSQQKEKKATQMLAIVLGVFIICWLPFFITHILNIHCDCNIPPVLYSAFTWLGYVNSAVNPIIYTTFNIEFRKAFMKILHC

`C#CCC1CN(C)CCc2cc(Cl)c(O)cc21` (centres undefined): the Ki (usually the equilibrium dissociation constant of an inhibitor or competing ligand from its target) on D(1A) dopamine receptor amounted to 8.7 nM; at D(2) dopamine receptor, 626 nM. Further, the CAR with Rattus norvegicus is 1 MPK.

As for `CN1CCc2cc(Cl)c(O)cc2C(C2C=CC=CC=C2)C1` (centres undefined), the Ki at D(1A) dopamine receptor is 3.7 nM; on D(2) dopamine receptor it was 1800 nM. In the assay with Rattus norvegicus, this compound showed a CAR of 0.1 MPK.

With `CCOC1CN(C)CCc2cc(Cl)c(O)cc21` (centres undefined), the Ki on D(1A) dopamine receptor was 24 nM; on D(2) dopamine receptor it was above 10000 nM. Also, the CAR in the assay with Rattus norvegicus is reported as 1 MPK.

Turning to `CN1CCc2cc(Cl)c(O)cc2C(C2C=CCCC2)C1` (centres undefined), the values for the Ki at D(1A) dopamine receptor and at D(2) dopamine receptor were 2 nM and 581 nM, respectively. In the assay on Rattus norvegicus, the CAR stood at 0.3 MPK.

Consider `CCCC1CN(C)CCc2cc(Cl)c(O)cc21` (centres undefined), for which the values for the Ki at D(1A) dopamine receptor and at D(2) dopamine receptor were 3.3 nM and 1160 nM, respectively. The compound also came in with a CAR in the assay on Rattus norvegicus of 0.3 MPK.

In the case of `CN1CCc2cc(Cl)c(O)cc2C(C2=CCCCC2)C1` (centres undefined), the Ki on D(1A) dopamine receptor came to 2.1 nM; at D(2) dopamine receptor, 1600 nM. This compound also had a CAR in the assay on Rattus norvegicus of 0.1 MPK.

For `CN1CCc2cc(Cl)c(O)cc2C(N2CCCCC2)C1` (centres undefined), the Ki was 100 nM on D(1A) dopamine receptor and above 10000 nM on D(2) dopamine receptor. Further, in the assay on Rattus norvegicus, the CAR amounted to 3 MPK.

In the case of `C=CCC1CN(C)CCc2cc(Cl)c(O)cc21` (centres undefined), the Ki at D(1A) dopamine receptor was 5.7 nM; on D(2) dopamine receptor, 284 nM. Moreover, the CAR in the assay with Rattus norvegicus is listed as 0.1 MPK.

For `CN1CCc2cc(Cl)c(O)cc2C(C2CCCCCC2)C1` (centres undefined), the Ki on D(1A) dopamine receptor was determined as 7.6 nM; on D(2) dopamine receptor, 1190 nM. The same compound came in with a CAR with Rattus norvegicus of 1 MPK.

Regarding `CN1CCc2cc(Cl)c(O)cc2C2(CCCC2)C1`, the Ki turned out to be 23 nM on D(1A) dopamine receptor and 2250 nM on D(2) dopamine receptor. Also, in the assay with Rattus norvegicus, the CAR was 1 MPK.

The compound `CCSC1CN(C)CCc2cc(Cl)c(O)cc21` (centres undefined) showed a Ki at D(2) dopamine receptor of 2710 nM.

For `CN1CCc2cc(Cl)c(O)cc2C(C2CCCC2)C1` (centres undefined), the Ki stood at 13 nM on D(1A) dopamine receptor and 2050 nM on D(2) dopamine receptor. In the assay with Rattus norvegicus, the CAR amounted to 1 MPK.

With `CN1CCc2cc(O)c(Cl)cc2CC1`, the Ki at D(1A) dopamine receptor worked out at 46 nM; at D(2) dopamine receptor, 265 nM. In the assay with Rattus norvegicus, this compound had a CAR of 1 MPK.

`CN(C)CCCC1CN(C)CCc2cc(Cl)c(O)cc21` (centres undefined): the Ki is above 1000 nM at D(1A) dopamine receptor and above 100000 nM at D(2) dopamine receptor.

In the case of `CN1CCc2cc(Cl)c(O)cc2C(C2=CCCC2)C1` (centres undefined), the Ki turned out to be 5.1 nM at D(1A) dopamine receptor and 1540 nM on D(2) dopamine receptor.

With `CN1CCc2cc(Cl)c(O)cc2C(C2CCCCC2)C1` (centres undefined), the affinity at D(2) dopamine receptor, expressed as Ki, was 1780 nM. In addition, in the assay on Rattus norvegicus, the CAR was found to be 0.3 MPK.

With `CN1CCc2cc(Cl)c(O)cc2[C@@H](c2ccccc2)C1` [SCH-23390], the CAR in the assay with Rattus norvegicus came out at 0.02 MPK.
